Assays:
[1] = target: T1, HCV NS5BΔ21/Gal4-DBD fusion protein (Hepatitis C virus genotype 1b, UniProt Q9WMX2); assay: 3D-SCREEN assay (NS5B reporter gene assay in Huh-7 cells); format: cell-based, HCV genotype 1b
T1 construct: The protein was expressed with a 21 amino acid C-terminal deletion to remove transmembrane domain; expressed in transfected cells; host or cells: Huh-7 (transient transfection)
Method: (§1) Human Hepatoma Huh-7 cell line was maintained in DMEM/HAMF-12 supplemented with 10% SVF, 4 mM glutamine, […] Na pyruvate, 1% penistreptomycine. HCV replicon containing Huh-7 cell lines Huh-9.13 and Luc Neo ET (Reblikon) were maintained in DMEM supplemented with 10% SVF, 2 mM glutamine, and 1×NEAA, 100 U/ml penicillin, and 100 μg/ml streptomycine. Replicon cells were maintained in medium supplemented with 1 mg/ml G418 for replicon Huh-9.13 and 0.5 mg/ml for Luc Neo et replicon unless indicated otherwise. Huh-7 and HCV replicon cell lines were maintained at 37° C. and 5% CO2 in a humidified atmosphere. Cells were dissociated at sub confluence with trypsin EDTA 1×.
cDNA encoding HCV NS5B genotype 1b, was cloned in frame with Gal4-DNA Binding Domain. The protein was expressed with a 21 amino acid C-terminal deletion to remove transmembrane domain. Expression of NS5BΔ21/Gal4 DBD fusion protein was under control of SV40 early promoter. 3D-Sensor peptide was cloned in frame with VP16 activation domain. Expression of 3D-Sensor/VP16 AD fusion protein was under control of CMV promoter. Expression of the firefly luciferase reporter gene was inducible by the [Target protein/conformation sensitive peptide/VP16AD] complex.
It is a single-target, cell based assay. Briefly, expression of a reporter gene depends on the interaction of a short peptide, thereafter named 3D-Sensor, and native conformation of the target protein. Whenever the conformation of the target protein is modified, interaction between 3D-sensor and target protein is disrupted and reporter gene is not expressed anymore. Conformation modifiers are identified by loss of expression of reporter gene. NS5B 3D-Screen platform was generated in Huh-7 cell lines by transient transfection of three expression vectors encoding respectively • (i) HCV NS5BΔ21/Gal4-DBD fusion protein • (ii) the 3D-sensor peptide 14/VP16 fusion protein • (iii) the firefly luciferase reporter gene
Huh-7 cells were dissociated the day before transfection and seeded in T175 flasks at a density of 10^7 cells in 30 ml culture medium. Equimolar ratios of vectors were transfected in cell according to optimized jetPEI transfection protocol (PolyPlus Transfection, Illkirch, France) and 10 μg total DNA/10^6 cells. Transfection was performed for 2 hours at 37° C. and 5% CO2 in a humidified atmosphere. After two hours cells were dissociated and seeded in 96 wells plates at a density of 25,000 cells per well and 90 μl culture medium. 10 μl of compounds to be tested were added 2 hours after seeding. Final concentration of DMSO was 1%. Cells were incubated in the presence of compounds for 24 hours after which expression of firefly luciferase reporter gene was quantified. Briefly, culture medium was removed and cells were lysed by addition of 100 μl of lysis buffer containing 125 mM Tris Phosphate ph 7.8, 10 mM EDTA, 5 mM DTT, 50% glycerol and 5% Triton. Plates were vortexed 10 min at 1300 rpm. Cell lysat was transferred in OpaqueWhite Assay 96 well Flat Bottom plates. 100 μl of luciferin solution 1× were added to each well. Luciferin solution contained 40 mM Tris Phosphate ph 7.8, 0.2 mM EDTA, 67 mM DTT, 2.14 mM MgCl2, 5.4 mM MgSO4, 4.7×10^−4 M luciferin, 5.3×10^−4 M ATP and 2.7×10^−4 M Acetyl co enzyme A. Luminescence was immediately measured with Berthold Microlumat Plus LB 96V luminometer with an integration of 0.5 sec. Inhibition was calculated using the formula: % inhibition=(1−(read/average max))*100. Average max=signal in absence of compound

[2] = tested on: HCV replicon Luc Neo ET in Huh-7 cells; assay: Replicon assay (Luc Neo ET replicon); format: cell-based; conditions: Hepatitis C virus, 72 hours with compound, firefly luciferase reporter, read-out: EC50—Replicon LucneoET
Method: as §1
Replicon Luc Neo ET is a bicistronic expression constructs (Lohmann et al, 1999, Science 285, 110-113). In brief, the structural genes of the HCV genome were replaced by heterologous sequences; the gene encoding the neomycin phosphotransferase (NPT) and the internal ribosome entry site (IRES) of the encephalomyocarditis virus (EMCV). The bicistronic construct is therefore composed of the following elements: HCV-IRES nucleotides 1-389, the NPT gene, the EMCV-IRES directing translation of downstream HCV sequences from NS2 or NS3 up to the authentic 3′ end of the genome. HCV Polyprotein harbours the cell culture adaptive mutations E1202G, T1280I, K1846T. G418-resistance is only possible with cells containing high amounts of replicon.
Cells were dissociated the day before addition of compounds and seeded in 96 well-plates at a final concentration of 77 777.77 cells·ml^−1·well^−2 in 90 μl final volume of culture medium per well and were maintained at 37° C. and 5% CO2 in a humidified atmosphere for 24 hours. 10 μl of compounds to be tested were added 24 hours after seeding. Final concentration of DMSO was 1%. Cells were incubated in the presence of compounds for 72 hours after which expression of firefly luciferase reporter gene was quantified. Briefly, culture medium was removed and cells were lysed by addition of 100 μl of lysis buffer containing 125 mM Tris Phosphate ph 7.8, 10 mM EDTA, 5 mM DTT, 50% glycerol and 5% Triton. Plates were vortexed 10 min at 1300 rpm. Cell lysat was transferred in OpaqueWhite Assay 96 well Flat Bottom plates. 100 μl of luciferin solution 1× were added to each well. Luciferin solution contained 40 mM Tris Phosphate ph 7.8, 0.2 mM EDTA, 67 mM DTT, 2.14 mM MgCl2, 5.4 mM MgSO4, 4.7×10^−4 M luciferin, 5.3×10^−4 M ATP and 2.7×10^−4 M Acetyl co enzyme A. Luminescence was immediately measured with Berthold Microlumat Plus LB 96V luminometer with an integration of 0.5 sec Inhibition was calculated using the formula:
% inhibition=1−[(RLUsample−RLUbackground)/(RLUsignal−RLUbackground)]

COc1ccc(C(=O)C2=C(O)C(=O)N(c3nnc(C)s3)C2c2ccc(C(C)(C)C)cc2)cc1 (stereo not drawn) [Example 3]
EC50 [1]: 7 µM
EC50 [2]: 15 µM

Cc1ccc(C(=O)C2=C(O)C(=O)N(c3ncc(S(=O)(=O)c4ccc([N+](=O)[O-])cc4)s3)C2c2ccc(C(C)C)cc2)cc1 (stereo not drawn) [Example 10]
EC50 [1]: 2 µM
EC50 [2]: 8 µM

COc1ccc(C(=O)C2=C(O)C(=O)N(c3nnc(C)s3)C2c2ccc(OC(F)(F)F)cc2)cc1 (stereo not drawn) [Example 20, 3-hydroxy-4-(4-methoxy-benzoyl)-1-(5-methyl-[1,3,4]thiadiazol-2-yl)-5-(4-trifluoromethoxy-phenyl)-1,5-dihydro-pyrrol-2-one]
melting point: 245 to 247 °C
EC50 [1]: 4 µM

COc1ccc(C(=O)C2=C(O)C(=O)N(c3nnc(C(F)(F)F)s3)C2c2ccc(C(C)(C)C)cc2)cc1 (stereo not drawn) [Example 26, 5-(4-tert-butyl-phenyl)-3-hydroxy-4-(4-methoxy-benzoyl)-1-(5-trifluoromethyl-[1,3,4]thiadiazol-2-yl)-1,5-dihydro-pyrrol-2-one]
melting point: 271 °C
EC50 [1]: 14 µM

COc1ccc(C(=O)C2=C(O)C(=O)N(c3nnc(C)s3)C2c2ccc(Cl)c(Cl)c2)cc1 (stereo not drawn) [Example 31]
EC50 [2]: 33 µM

COc1ccc(C(=O)C2=C(O)C(=O)N(c3nnc(C(C)C)s3)C2c2ccc(C(C)(C)C)cc2)cc1 (stereo not drawn) [Example 35, 5-(4-tert-butyl-phenyl)-3-hydroxy-1-(5-isopropyl-[1,3,4]thiadiazol-2-yl)-4-(4-methoxy-benzoyl)-1,5-dihydro-pyrrol-2-one]
melting point: 257 °C
EC50 [1]: 4 µM

Cc1ccc(C(=O)C2=C(O)C(=O)N(c3ncc(S(=O)(=O)N(C)C)s3)C2c2ccc(C(C)C)cc2)cc1 (stereo not drawn) [Example 39, 2-[3-hydroxy-5-(4-isopropyl-phenyl)-4-(4-methyl-benzoyl)-2-oxo-2,5-dihydro-pyrrol-1-yl]-thiazole-5-sulfonic acid dimethylamide]
melting point: 237 to 241 °C
EC50 [1]: 16 µM

CC(C)(C)c1ccc(C2C(C(=O)c3ccc(Cl)cc3)=C(O)C(=O)N2c2ncc(S(=O)(=O)c3ccc([N+](=O)[O-])cc3)s2)cc1 (stereo not drawn) [Example 40]
EC50 [1]: 5 µM
EC50 [2]: 28 µM

Cc1ccc(C(=O)C2=C(O)C(=O)N(c3ncc(S(=O)(=O)N4CCOCC4)s3)C2c2ccc(C(C)C)cc2)cc1 (stereo not drawn) [Example 41, 3-hydroxy-5-(4-isopropyl-phenyl)-4-(4-methyl-benzoyl)-1-[5-(morpholine-4-sulfonyl)-thiazol-2-yl]-1,5-dihydro-pyrrol-2-one]
melting point: 247 to 252 °C
EC50 [1]: 16.3 µM

Cc1ccc(C(=O)C2=C(O)C(=O)N(c3ncc(S(=O)(=O)c4ccc([N+](=O)[O-])cc4)s3)C2c2cccc(Cl)c2)cc1 (stereo not drawn) [Example 51]
EC50 [1]: 7 µM
EC50 [2]: 10 µM

Cc1ccc(C(=O)C2=C(O)C(=O)N(c3nnc(C)s3)C2c2ccc(C(C)C)cc2)cc1 (stereo not drawn) [Example 54]
EC50 [1]: 13 µM
EC50 [2]: 11 µM

CN(C)c1ccc(C(=O)C2=C(O)C(=O)N(c3ncc(S(=O)(=O)c4ccc([N+](=O)[O-])cc4)s3)C2c2ccc(C(C)(C)C)cc2)cc1 (stereo not drawn) [Example 55, 5-(4-tert-butyl-phenyl)-4-(4-dimethylamino-benzoyl)-3-hydroxy-1-[5-(4-nitro-benzenesulfonyl)-thiazol-2-yl]-1,5-dihydro-pyrrol-2-one]
EC50 [1]: 4 µM
EC50 [2]: 7 µM

CCc1ccc(C2C(C(=O)c3ccco3)=C(O)C(=O)N2c2ncc(S(=O)(=O)c3ccc([N+](=O)[O-])cc3)s2)cc1 (stereo not drawn) [Example 104, 5-(4-ethyl-phenyl)-4-(furan-2-carbonyl)-3-hydroxy-1-[5-(4-nitro-benzenesulfonyl)-thiazol-2-yl]-1,5-dihydro-pyrrol-2-one]
EC50 [1]: < 10 µM
EC50 [2]: < 10 µM

O=C(O)c1ccc(C2C(C(=O)c3ccco3)=C(O)C(=O)N2c2ncc(S(=O)(=O)c3ccc([N+](=O)[O-])cc3)s2)cc1 (stereo not drawn) [Example 112, 4-{3-(furan-2-carbonyl)-4-hydroxy-1-[5-(4-nitro-benzenesulfonyl)-thiazol-2-yl]-5-oxo-2,5-dihydro-1H-pyrrol-2-yl}-benzoic acid]
EC50 [1]: < 10 µM
EC50 [2]: < 10 µM

CC(C)c1ccc(C(=O)C2=C(O)C(=O)N(c3ncc(S(=O)(=O)c4ccc([N+](=O)[O-])cc4)s3)C2c2ccc(OC(F)(F)F)cc2)cc1 (stereo not drawn) [Example 125, 3-hydroxy-4-(4-isopropyl-benzoyl)-1-[5-(4-nitro-benzenesulfonyl)-thiazol-2-yl]-5-(4-trifluoromethoxy-phenyl)-1,5-dihydro-pyrrol-2-one]
melting point: 276 to 278 °C
EC50 [1]: < 10 µM
EC50 [2]: < 10 µM

CC(C)c1ccc(C(=O)C2=C(O)C(=O)N(c3ncc(S(=O)(=O)c4ccc([N+](=O)[O-])cc4)s3)C2c2ccc(C(F)(F)F)cc2)cc1 (stereo not drawn) [Example 126, 3-hydroxy-4-(4-isopropyl-benzoyl)-1-[5-(4-nitro-benzenesulfonyl)-thiazol-2-yl]-5-(4-trifluoromethyl-phenyl)-1,5-dihydro-pyrrol-2-one]
melting point: 300 to 302 °C
EC50 [1]: < 10 µM

Cc1cnc(N2C(=O)C(O)=C(C(=O)c3ccc(C(C)C)cc3)C2c2ccc(C(F)(F)F)cc2)s1 (stereo not drawn) [Example 129, 3-hydroxy-4-(4-isopropyl-benzoyl)-1-(5-methyl-thiazol-2-yl)-5-(4-trifluoromethyl-phenyl)-1,5-dihydro-pyrrol-2-one]
EC50 [1]: < 10 µM
EC50 [2]: < 10 µM

CC(C)c1ccc(C(=O)C2=C(O)C(=O)N(c3ncc(Sc4ccc([N+](=O)[O-])cc4)s3)C2c2ccc(OC(F)(F)F)cc2)cc1 (stereo not drawn) [Example 131, 3-hydroxy-4-(4-isopropyl-benzoyl)-1-[5-(4-nitro-phenylsulfanyl)-thiazol-2-yl]-5-(4-trifluoromethoxy-phenyl)-1,5-dihydro-pyrrol-2-one]
melting point: 238 °C
EC50 [1]: 13 µM

Reference: patent publication US20120189579A1 (priority 2009, published 2012)
